Like-named read-outs stand apart in the source and are kept apart here.
What was measured:
[1] = tested on: Key Broadleaf Weed and Crop Species; test: Post-emergent Test II herbicidal activity (Table 5); format: in vivo; details: post-emergence, 336 h, 14 days after application; for pest or weed control at 70 g/ha: application rate 70 g ai/ha; for pest or weed control at 140 g/ha: application rate 140 g ai/ha
Procedure, shortened: (§1)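 Percent injury, 0 (none) to 100 (complete kill), was judged visually 14 d after spraying young plants at the first or second true leaf stage with compound in an acetone/DMSO aqueous carrier at 187 L/ha. Plants were kept in a greenhouse at 23–29 °C by day.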

[2] = tested on: Key Grass and Sedge Weeds as well as Grass Crops; test: Post-emergent Test II herbicidal activity (Table 6); format: in vivo; details: post-emergence, 336 h; for pest or weed control at 70 g/ha: 70 g ai/ha; for pest or weed control at 140 g/ha: 140 g ai/ha
Procedure, shortened: as §1

[3] = ABUTH: velvetleaf (Abutilon theophrasti), read-out: Visual Growth Reduction (%) 14 Days After Application, ABUTH
[4] = AMARE: redroot pigweed (Amaranthus retroflexus), read-out: Visual Growth Reduction (%) 14 Days After Application, AMARE
[5] = BRSNN: oilseed-rape, canola (Brassica napus), read-out: Visual Growth Reduction (%) 14 Days After Application, BRSNN
[6] = CHEAL: lambsquarters (Chenopodium album), read-out: Visual Growth Reduction (%) 14 Days After Application, CHEAL
[7] = EPHHL: wild poinsettia (Euphorbia heterophylla), read-out: Visual Growth Reduction (%) 14 Days After Application, EPHHL
[8] = HELAN: sunflower (Helianthus annuus), read-out: Visual Growth Reduction (%) 14 Days After Application, HELAN
[9] = VIOTR: wild pansy (Viola tricolor), read-out: Visual Growth Reduction (%) 14 Days After Application, VIOTR
[10] = CYPES: yellow nutsedge (Cyperus esculentus), read-out: Visual Growth Reduction (%) 14 Days After Application, CYPES
[11] = DIGSA: crabgrass (Digitaria sanguinalis), read-out: Visual Growth Reduction (%) 14 Days After Application, DIGSA
[12] = ECHCG: barnyardgrass (Echinochloa crus-galli), read-out: Visual Growth Reduction (%) 14 Days After Application, ECHCG
[13] = ORYSA: rice (Oryza sativa), crop, read-out: Visual Growth Reduction (%) 14 Days After Application, ORYSA
[14] = SETFA: giant foxtail (Setaria faberi), read-out: Visual Growth Reduction (%) 14 Days After Application, SETFA
[15] = SORVU: grain sorghum (Sorghum vulgare), read-out: Visual Growth Reduction (%) 14 Days After Application, SORVU
[16] = TRZSS (wheat, Triticum aestivum), crop, read-out: Visual Growth Reduction (%) 14 Days After Application, TRZSS
[17] = ZEAMX: maize, corn (Zea mays), crop, read-out: Visual Growth Reduction (%) 14 Days After Application, ZEAMX

Row | Compound | pest or weed control at 70 g/ha [1, 3] [%] | pest or weed control at 140 g/ha [1, 3] [%] | pest or weed control at 70 g/ha [1, 4] [%] | pest or weed control at 140 g/ha [1, 4] [%] | pest or weed control at 70 g/ha [1, 5] [%] | pest or weed control at 140 g/ha [1, 5] [%] | pest or weed control at 70 g/ha [1, 6] [%] | pest or weed control at 140 g/ha [1, 6] [%] | pest or weed control at 70 g/ha [1, 7] [%] | pest or weed control at 70 g/ha [1, 8] [%] | pest or weed control at 140 g/ha [1, 8] [%] | pest or weed control at 70 g/ha [1, 9] [%] | pest or weed control at 140 g/ha [1, 9] [%] | pest or weed control at 70 g/ha [2, 10] [%] | pest or weed control at 140 g/ha [2, 10] [%] | pest or weed control at 70 g/ha [2, 11] [%] | pest or weed control at 140 g/ha [2, 11] [%] | pest or weed control at 70 g/ha [2, 12] [%] | pest or weed control at 140 g/ha [2, 12] [%] | pest or weed control at 70 g/ha [2, 13] [%] | further results
1 | COc1c(N)nc(-c2ccc(C(F)(F)F)c(F)c2F)nc1C(=O)O [Compound 76] | 95 to 100 | 95 to 100 | 95 to 100 | 95 to 100 | 85 to 94 | 95 to 100 | 85 to 94 | 95 to 100 | 95 to 100 | 85 to 94 | 95 to 100 | 45 to 59 | 60 to 74 | 0 to 29 | 30 to 44 | 75 to 84 | 85 to 94 | 85 to 94 | 95 to 100 | 0 to 29 | pest or weed control at 140 g/ha [2, 13]: 30 to 44%; pest or weed control at 70 g/ha [2, 14]: 45 to 59%; pest or weed control at 140 g/ha [2, 14]: 60 to 74%; pest or weed control at 70 g/ha [2, 15]: 45 to 59%; pest or weed control at 140 g/ha [2, 15]: 45 to 59%; pest or weed control at 70 g/ha [2, 16]: 45 to 59%; pest or weed control at 140 g/ha [2, 16]: 45 to 59%; pest or weed control at 70 g/ha [2, 17]: 0 to 29%; pest or weed control at 140 g/ha [2, 17]: 95 to 100%; melting point: 169 to 170 °C
2 | COC(=O)c1nc(-c2ccc(OC(F)F)cc2)nc(N)c1OC [Compound 106, methyl 6-amino-2-(4-(difluoromethoxy)phenyl)-5-methoxypyrimidine-4-carboxylate] | 0 to 29 | 0 to 29 | 0 to 29 | 0 to 29 | 0 to 29 | 0 to 29 | 0 to 29 | 0 to 29 | 0 to 29 | 0 to 29 | 0 to 29 | 0 to 29 | 0 to 29 | 0 to 29 | 0 to 29 | 0 to 29 | 0 to 29 | 0 to 29 | 0 to 29 | 0 to 29 | pest or weed control at 140 g/ha [1, 7]: 0 to 29%; pest or weed control at 140 g/ha [2, 13]: 0 to 29%; pest or weed control at 70 g/ha [2, 14]: 0 to 29%; pest or weed control at 140 g/ha [2, 14]: 0 to 29%; pest or weed control at 70 g/ha [2, 15]: 0 to 29%; pest or weed control at 140 g/ha [2, 15]: 0 to 29%; pest or weed control at 70 g/ha [2, 16]: 0 to 29%; pest or weed control at 140 g/ha [2, 16]: 0 to 29%; pest or weed control at 70 g/ha [2, 17]: 0 to 29%; pest or weed control at 140 g/ha [2, 17]: 0 to 29%; melting point: 183 to 184 °C
3 | Nc1c(F)c(-c2ccc(C(F)(F)F)c(F)c2F)nc(C(=O)O)c1Cl [Compound 167] | 85 to 94 | 95 to 100 | 95 to 100 | 95 to 100 | 95 to 100 | 95 to 100 | 95 to 100 | 95 to 100 | 95 to 100 | 95 to 100 | 95 to 100 | 95 to 100 | 85 to 94 | 85 to 94 | 95 to 100 | 75 to 84 | 75 to 84 | 95 to 100 | 95 to 100 | 0 to 29 | pest or weed control at 140 g/ha [1, 7]: 95 to 100%; pest or weed control at 140 g/ha [2, 13]: 0 to 29%; pest or weed control at 70 g/ha [2, 14]: 85 to 94%; pest or weed control at 140 g/ha [2, 14]: 95 to 100%; pest or weed control at 70 g/ha [2, 15]: 85 to 94%; pest or weed control at 140 g/ha [2, 15]: 85 to 94%; pest or weed control at 70 g/ha [2, 16]: 60 to 74%; pest or weed control at 140 g/ha [2, 16]: 60 to 74%; pest or weed control at 70 g/ha [2, 17]: 75 to 84%; pest or weed control at 140 g/ha [2, 17]: 85 to 94%; melting point: 69 to 70 °C
4 | Nc1cc(-c2ccc(C(F)(F)F)c(F)c2F)nc(C(=O)O)c1Cl [Compound 172, 4-amino-3-chloro-6-(2,3-difluoro-4-(trifluoromethyl)phenyl)picolinic acid] | 95 to 100 | 95 to 100 | 95 to 100 | 95 to 100 | 75 to 84 | 75 to 84 | 85 to 94 | 85 to 94 | 95 to 100 | 95 to 100 | 95 to 100 | 45 to 59 | 60 to 74 | 95 to 100 | 95 to 100 | 75 to 84 | 75 to 84 | 95 to 100 | 95 to 100 | 0 to 29 | pest or weed control at 140 g/ha [1, 7]: 95 to 100%; pest or weed control at 140 g/ha [2, 13]: 0 to 29%; pest or weed control at 70 g/ha [2, 14]: 95 to 100%; pest or weed control at 140 g/ha [2, 14]: 95 to 100%; pest or weed control at 70 g/ha [2, 15]: 75 to 84%; pest or weed control at 140 g/ha [2, 15]: 75 to 84%; pest or weed control at 70 g/ha [2, 16]: 45 to 59%; pest or weed control at 140 g/ha [2, 16]: 60 to 74%; pest or weed control at 70 g/ha [2, 17]: 95 to 100%; pest or weed control at 140 g/ha [2, 17]: 95 to 100%; melting point: 161 °C

Source: patent publication US9113629B2, “4-amino-6-(4-substituted-phenyl)-picolinates and 6-amino-2-(4-substituted-phenyl)-pyrimidine-4-carboxylates and their use as herbicides” (DOW AGROSCIENCES LLC, priority 2013, dated 2015)
